Test results taken from patent US20240270821A1, “GIP/GLP1/GCG TRI-RECEPTOR AGONISTS AND USES THEREOF” (priority 2023, published 2024).
Starred links: 1 amine or outer side, 2 acyl side, 3 side chain; linkers in the order of their positions; H or OH if unused. Non-standard residues stand in square brackets, D forms with d. Groups on a side chain read outwards from the residue. No end group written: not given here. *: point of attachment. C18 diacid = O=C(O)CCCCCCCCCCCCCCCCC(=O)*; γGlu = O=C(O)[C@H](CCC(=O)[*:2])N[*:1]; αMe4Pal = C[C@](N)(Cc1ccncc1)C(=O)O; 4Pal = N[C@@H](Cc1ccncc1)C(=O)O; αMeL = CC(C)C[C@](C)(N)C(=O)O; Orn = NCCC[C@H](N)C(=O)O; Dab = NCC[C@H](N)C(=O)O; AEEA = NCCOCCOCC(=O)O; Aib = CC(C)(N)C(=O)O

Key:
human GcgR = human GcgR (Homo sapiens, UniProt P47871); test: Functional cAMP activity in the presence of 1% HSA; type: cell-based; conditions: read-out: cAMP Rel EC50, hGcgR
hGLP-1R [1] = target: T1, hGLP-1R (Homo sapiens, UniProt P43220); test: Functional cAMP activity in the presence of 1% HSA; type: cell-based; conditions: read-out: cAMP Rel EC50, hGLP-1R
hGLP-1R [2] = target: T1, hGLP-1R; test: Functional cAMP activation in the presence of 0.1% casein (no HSA); type: cell-based; conditions: in the presence of 0.1% casein (no HSA); geometric mean; read-out: Relative cAMP EC50, hGLP-1R;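 as to Relative cAMP EC50, hGIPR: intracellular cAMP rise after 30 min at 37 °C read by HTRF against a standard curve, scaled between buffer alone (0%) and top control ligand concentration (100%), four-parameter fit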;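 as to Relative cAMP EC50, hGLP-1R: intracellular cAMP rise after 30 min at 37 °C read by HTRF, normalized between buffer only (0%) and maximal control ligand (100%), four-parameter variable-slope fit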;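 as to Relative cAMP EC50, hGcgR: intracellular cAMP rise after 30 min at 37 °C, read by HTRF against a cAMP standard curve, scaled from buffer only (0%) to maximal control ligand response (100%)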
hGIPR [3] = target: T2, hGIPR (Homo sapiens, UniProt P48546); test: as above; type: cell-based; conditions: in the presence of 0.1% casein (no HSA); geometric mean; read-out: Relative cAMP EC50, hGIPR;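 also: intracellular cAMP rise after 30 min at 37 °C read by HTRF against a standard curve, scaled between buffer alone (0%) and top control ligand concentration (100%), four-parameter fit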
T2 sequence (P48546 22-466): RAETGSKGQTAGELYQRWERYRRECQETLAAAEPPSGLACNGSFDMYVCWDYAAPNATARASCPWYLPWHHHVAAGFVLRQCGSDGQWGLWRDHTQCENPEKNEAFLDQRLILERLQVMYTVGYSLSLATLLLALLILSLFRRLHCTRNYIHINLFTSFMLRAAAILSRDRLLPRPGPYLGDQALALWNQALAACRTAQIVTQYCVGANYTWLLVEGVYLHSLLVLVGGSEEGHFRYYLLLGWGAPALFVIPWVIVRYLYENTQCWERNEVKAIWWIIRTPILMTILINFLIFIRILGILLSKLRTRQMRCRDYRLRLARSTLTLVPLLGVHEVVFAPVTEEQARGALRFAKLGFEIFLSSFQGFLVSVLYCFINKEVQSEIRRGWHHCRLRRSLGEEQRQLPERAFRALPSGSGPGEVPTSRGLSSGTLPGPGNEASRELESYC

hGcgR = hGcgR (Homo sapiens, UniProt P47871); test: as above; type: cell-based; conditions: in the presence of 0.1% casein (no HSA); geometric mean; read-out: Relative cAMP EC50, hGcgR;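 also: intracellular cAMP rise after 30 min at 37 °C, read by HTRF against a cAMP standard curve, scaled from buffer only (0%) to maximal control ligand response (100%)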
human GLP1-R = human GLP1-R (Homo sapiens, UniProt P43220); test: GLP1-R internalization assay in HEK293 cells; type: cell-based; conditions: for EC50: HEK293 cells expressing SNAP-GLP-1R, read-out: GLP1R Internalization EC50; for Internalization % TOP: normalized to maximum concentration of GLP-1 (100%)
hGIPR [4] = target: T2, hGIPR; test: Functional cAMP activity in the presence of 1% HSA; type: cell-based; conditions: read-out: cAMP Rel EC50, hGIPR
[5] = system: Intestinal organoid from Göttingen minipig jejunum tissue, 2D monolayer; test: Cell based in vitro permeability (Papp) assay; type: in vitro ADME
Method in brief: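 Papp calculated from LC/MS peptide levels in apical and basal compartments. Basal sampling at 20 min with C10 present, across monolayers grown from dissociated minipig jejunal organoids in transwells.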

Sequence of human GcgR (P47871 26-477): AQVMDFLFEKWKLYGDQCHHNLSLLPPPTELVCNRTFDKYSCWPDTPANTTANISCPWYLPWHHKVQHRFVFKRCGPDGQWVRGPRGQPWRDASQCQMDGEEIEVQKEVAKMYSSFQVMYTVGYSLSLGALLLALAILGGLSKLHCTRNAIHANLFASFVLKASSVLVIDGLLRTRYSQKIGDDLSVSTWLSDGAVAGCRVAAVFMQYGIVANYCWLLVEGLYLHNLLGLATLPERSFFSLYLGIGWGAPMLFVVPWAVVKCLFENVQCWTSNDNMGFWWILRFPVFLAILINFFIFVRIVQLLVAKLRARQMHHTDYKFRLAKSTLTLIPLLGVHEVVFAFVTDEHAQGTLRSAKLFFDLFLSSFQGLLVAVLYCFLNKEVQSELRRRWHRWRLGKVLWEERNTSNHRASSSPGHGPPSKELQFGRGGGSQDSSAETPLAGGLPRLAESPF
Sequence of hGcgR (P47871 26-477): as above
T1 sequence (P43220 24-463): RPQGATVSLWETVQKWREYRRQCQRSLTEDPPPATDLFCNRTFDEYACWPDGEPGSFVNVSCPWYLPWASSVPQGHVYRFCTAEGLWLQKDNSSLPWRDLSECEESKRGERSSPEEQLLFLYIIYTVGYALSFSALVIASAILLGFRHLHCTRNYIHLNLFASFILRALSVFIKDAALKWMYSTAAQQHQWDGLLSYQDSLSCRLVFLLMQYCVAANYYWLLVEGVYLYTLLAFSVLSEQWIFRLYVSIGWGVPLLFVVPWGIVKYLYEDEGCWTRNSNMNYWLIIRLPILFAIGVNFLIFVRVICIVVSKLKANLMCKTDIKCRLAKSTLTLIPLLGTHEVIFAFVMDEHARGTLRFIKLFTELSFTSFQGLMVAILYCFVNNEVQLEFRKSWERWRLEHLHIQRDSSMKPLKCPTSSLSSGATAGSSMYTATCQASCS
Sequence of human GLP1-R (P43220 24-463): as above

Row | Molecule | EC50 (human GcgR) [nM] | EC50 (hGLP-1R [1]) [nM] | EC50 (hGLP-1R [2]) [nM] | EC50 (hGIPR [3]) [nM] | EC50 (hGcgR) [nM] | EC50 (human GLP1-R) [nM] | Internalization % TOP (human GLP1-R) [%] | EC50 (hGIPR [4]) [nM] | Relative Papp (Compared to internal standard) [5]
1 | H-Y[Aib]QGTFTSD[4Pal]S[Orn][αMeL]LDKK([AEEA-γGlu-C18 diacid])AQ[Aib]AFIEYLLAGGPSSGEPPPSGS-NH2 [Example 154] | 1040 | 569 | 4.94 | 0.227 | 8.72 | 47.7 | 65.9 | 29.7 | 0.12
2 | H-Y[Aib]QGTFTSD[4Pal]SQ[αMeL]LDKK([AEEA-γGlu-C18 diacid])AQ[αMe4Pal]AFIEYLIE[Aib]GESSGAPPPSGS-NH2 [Example 226] | 763 | 354 | 1.97 | 0.127 | 3.08 | 29.1 | 59.3 | 32.2 | 0.36
3 | CC[C@H](C)[C@H](NC(=O)[C@H](Cc1ccccc1)NC(=O)[C@H](C)NC(=O)C(C)(C)NC(=O)[C@H](CCC(N)=O)NC(=O)[C@H](C)NC(=O)[C@H](CCCCNC(=O)COCCOCCNC(=O)CC[C@H](NC(=O)CCCCCCCCCCCCCCCCC(=O)O)C(=O)O)NC(=O)[C@H](CCCCN)NC(=O)[C@H](CC(=O)O)NC(=O)[C@H](CC(C)C)NC(=O)[C@](C)(CC(C)C)NC(=O)[C@H](CCCN)NC(=O)[C@H](CO)NC(=O)[C@H](Cc1ccccc1)NC(=O)[C@H](CC(=O)O)NC(=O)[C@H](CO)NC(=O)[C@@H](NC(=O)[C@H](Cc1ccccc1)NC(=O)[C@@H](NC(=O)CNC(=O)[C@H](CCC(N)=O)NC(=O)C(C)(C)NC(=O)[C@@H](N)Cc1ccc(O)cc1)[C@@H](C)O)[C@@H](C)O)C(=O)N[C@@H](CCC(=O)O)C(=O)N[C@@H](Cc1ccc(O)cc1)C(=O)N[C@@H](CC(C)C)C(=O)N[C@@H](CC(C)C)C(=O)N[C@@H](CCC(=O)O)C(=O)N[C@H](C)C(=O)NCC(=O)N1CCC[C@H]1C(=O)N[C@@H](CO)C(=O)N[C@@H](CO)C(=O)NCC(=O)N[C@@H](C)C(=O)N1CCC[C@H]1C(=O)N1CCC[C@H]1C(=O)N1CCC[C@H]1C(=O)N[C@@H](CO)C(=O)NCC(=O)N[C@H](C(N)=O)[C@@H](C)O [Example 210] | 501 | 264 | 1.44 | 0.153 | 2.81 | 80.2 | 49.2 | 23.5 | 0.06
4 | H-Y[Aib]QGTFTSD[4Pal]SR[αMeL]LDKK([AEEA-γGlu-C18 diacid])AQ[αMe4Pal]AFIEYLIE[Aib]GESSGAPPPSGE-NH2 [Example 225] | 561 | 438 | 2.44 | 0.213 | 2.36 | 26 | 56.7 | 40.2 | 0.48
5 | H-Y[Aib]QGTFTSDFS[Orn][αMeL]LDKK([AEEA-AEEA-γGlu-C18 diacid])AQ[Aib]AFIEYLLE[Aib]G[4Pal]SSGAPPPSGE-NH2 [Example 189] | 853 | 423 | 4.46 | 0.0695 | 6.28 | 103 | 45.8 | 22.2 | 0.17
6 | H-Y[Aib]QGTFTSD[4Pal]S[Orn][αMeL]LDKK([AEEA-γGlu-C18 diacid])AQ[αMe4Pal]AFIEYLIE[Aib]GESSGAPPPSGS-NH2 [Example 223] | 373 | 627 | 2.83 | 0.215 | 1.57 | 45.8 | 59.3 | 37.2 | 0.29
7 | Y[Aib]QGTFTSDFS[Orn][αMeL]LDKK([AEEA-AEEA-γGlu-C18 diacid])AQ[Aib]AFIEYLLE[dA]GPSSGHPPPSGH-NH2 [Example 255] | 883 | 272 | 1.9 | 0.107 | 5.48 | 47.1 | 51.8 | 21.9 | 0.23
8 | H-Y[Aib]QGTFTSD[4Pal]S[Dab][αMeL]LDKK([AEEA-γGlu-C18 diacid])AQ[Aib]AFIEYLIE[Aib]GESSGAPPPSGS-NH2 [Example 188] | 2920 | 436 | 3.43 | 0.193 | 10.8 | 44.7 | 40.2 | 43.8 | 0.46
9 | H-Y[Aib]QGTFTSDFS[Orn][αMeL]LDKK([AEEA-γGlu-C18 diacid])AQ[Aib]AFIEYLLE[dA]GPSS[Aib]APPPSGT-NH2 [Example 214] | 302 | 186 | 1.22 | 0.103 | 2.49 | 50.1 | 41.7 | 15.1 | 0.07
10 | H-Y[Aib]QGTFTSDFS[Orn][αMeL]LDKK([AEEA-γGlu-C18 diacid])AQ[Aib]AFIEYLLE[Aib]G[4Pal]SSGAPPPSGS-NH2 [Example 242] | 484 | 242 | 3.42 | 0.0916 | 3.5 | 56 | 38.2 | 5.94 | 0.07
11 | H-Y[Aib]QGTFTSDFS[Orn][αMeL]LDKK([AEEA-AEEA-γGlu-C18 diacid])AQ[Aib]AFIEYLLE[Aib]GPSSGAPPPSGT-NH2 [Example 165] | 1250 | 808 | 6.52 | 0.0956 | 4.47 | 57.5 | 44.5 | 18.6 | 0.09
12 | H-Y[Aib]QGTFTSDFS[Orn][αMeL]LDKK([AEEA-AEEA-γGlu-C18 diacid])AQ[Aib]AFIEWLLEGGHSSGAPPPSGE-NH2 [Example 169] | 439 | 216 | 6.17 | 0.209 | 11.7 | 178 | 49.4 | 21.5 | 0.12
13 | H-Y[Aib]QGTFTSDFS[Orn][αMeL]LDKK([AEEA-AEEA-γGlu-C18 diacid])AQ[Aib]AFIEYLLE[Aib]GHSSGAPPPSGE-NH2 [Example 186] | 1280 | 690 | 5.26 | 0.107 | 4.67 | 124 | 41.1 | 18 | 0.10
